# From patent publication US20050239867A1, “Methods of using and compositions comprising PDE4 modulators for the treatment and management of pulmonary hypertension” (priority 2004, published 2005)
# Assays:
# patients with PH [1] = assay: Expanded clinical study in 213 PH patients, WHO functional class III or IV, 16 weeks; format: in vivo, human
# Experimental: On the basis of the results of the above study 2, the clinical study is expanded with additional 213 PH patients for at least 16 weeks. The study is conducted with patients with PH, WHO functional class III or IV. Two hundred thirteen patients are randomized to receive either 400 mg bid or 800 mg bid of 3-(3,4-dimethoxy-phenyl)-3-(1-oxo-1,3-dihydro-isoindol-2-yl)-propionamide or placebo in a 1:1:1 ratio. The primary endpoint, a 6-minute walk distance, is evaluated at 16 weeks. The treated patients walk 36.4 meters further at 16 weeks compared to a 7.8 meter reduction in walk distance in the placebo group, for a treatment effect of 44.2 meters. Clinical worsening, defined by death, premature withdrawal from study, hospitalization for worsening of PH or institution of epoprostenol, occur in 37% of placebo-treated patients, compared with 11% of the patients treated with the compound of the invention.
# patients with PH [2] = assay: Clinical Study 2 in patients with PH, 12 weeks, placebo controlled; format: in vivo, human
# TNF-α production = assay: In vitro inhibition of cytokine (TNF-α) production following LPS-stimulation of human PBMC and human whole blood; format: cell-based; conditions: in vitro studies; more potent than thalidomide
# Text: In a specific embodiment, the pharmacological properties of 3-(3,4-dimethoxy-phenyl)-3-(1-oxo-1,3-dihydro-isoindol-2-yl)-propionamide are characterized in in vitro studies. Studies examine the effects of the compound on the production of various cytokines. Inhibition of TNF-α production following LPS-stimulation of human PBMC and human whole blood by the compound is investigated in vitro. […] The pharmacological effects of 3-(3,4-dimethoxy-phenyl)-3-(1-oxo-1,3-dihydro-isoindol-2-yl)-propionamide may derive from its action as an inhibitor of the generation of inflammatory cytokines.
# [3] = 12 weeks, compared with placebo patients
# [4] = after 12 weeks of treatment, compared with placebo
compound,measurement,setting,value
"COc1ccc(C(CC(N)=O)N2Cc3ccccc3C2=O)cc1OC (centres unmarked) [3-(3,4-Dimethoxy-phenyl)-3-(1-oxo-1,3-dihydro-isoindol-2-yl)-propionamide]","6-minute walk distance, walked further","patients with PH [1]; at 16 weeks, 400 mg bid or 800 mg bid",36.4 meters
same,"6-minute walk distance, treatment effect versus placebo","patients with PH [1]; at 16 weeks, 400 mg bid or 800 mg bid, placebo 7.8 meter reduction",44.2 meters
same,"clinical worsening (death, premature withdrawal, hospitalization for worsening of PH or institution of epoprostenol), share of patients","patients with PH [1]; at least 16 weeks, placebo 37%",11%
same,functional class,patients with PH [1]; treated versus placebo patients,improved significantly more
same,dyspnea score,patients with PH [2]; [3],improvements
same,functional class,patients with PH [2]; [3],improvements
same,cardiac output,patients with PH [2]; [4],increase
same,pulmonary arterial pressure,patients with PH [2]; [4],decreases
same,pulmonary vascular resistance,patients with PH [2]; [4],decreases
same,"6-minute walk distance, average walked farther","patients with PH [2]; after 12 weeks, 400 mg for four weeks followed by 800 mg for eight weeks, NYHA functional class III",70 meters
same,"pharmacological activity profile, potency relative to thalidomide",TNF-α production,five to fifty
